For orientation: solubility means how much of the substance goes into solution per volume.

One data set is described as follows: Tap density. In kind it is physicochemical.
Data set [1] is described as follows: Saturated solubility and rate of dissolution of FP. Here is the method:
The saturated solubility of FP was measured by HPLC for the nanocrystals produced by the batch process of the invention, FP homogenized and FP stock material.

Data set [2] in a line: Stability of FP nanocrystal suspensions (assay, impurities, pH, particle size). In kind it is physicochemical. The text has this:
This phase III composition was also stable chemically for more than 4 weeks at 40 degrees C. This combination of polymers also maintains the particle size at its original size for 5-14 days.
The stability of the nanocrystals is controlled by the pH of phase III, which is formed by the combination of phase I and phase II. A 20 gram batch of nanocrystals were produced at pH 5.5 and placed on stability at 25 degrees C. Another 20 gram batch was produced at pH 7.5 and stability determined at 25 degrees C. for 30 days. Unexpectedly, the particles at 7.5 grew rapidly to an average particle size greater than 1 micron. This phenomenon was verified for batches at the 50 gram scale.
It was also observed that the final compositions or formulations of FP were stable across all concentrations tested, i.e., 0.005%, 0.01%, 0.1%, and 10%. Samples were placed in 4° C., 25° C., 40° C. stability chambers. Stability time-points: T=0d, T=1 week, T=2 weeks, T=4 weeks.
Nanocrystals prepared by the batch process were tested on stability, to assess if the particle size distribution remained with a narrow range of 400-600 nm. […]
Samples were measured for particle size, pH, osmolality and assay. […]

A short description of data set [3]: Solubility of triamcinolone acetonide in non-aqueous solvents. The class given is physicochemical. The note with it: preliminary estimation; for solubility at 15 min: organic solvent or mixture, thermodynamic from solid. Here is the method:
Triamcinolone Acetonide (TA), stock was used as received from the manufacturer. Solubility of Triamcinolone Acetonide (TA) was measured in propylene glycol, polypropylene glycol, TWEEN® 20 (polysorbate 20), TWEEN 80 (polysorbate 80), PEG 400.
Initially, 5 mg of the TA was added to 10 g of solvent; the mixture was vortexed for 5 min, and sonicated for 10 min in a water bath. 1-5 mg of TA was added when the initial amount dissolved in the solvent completely—clear solution of TA in solvent. The process was continued until saturation solubility was reached. The solvent that provided the highest solubility was chosen for further development as Phase I.
The solubility of TA in propylene glycol, polypropylene glycol, PEG 400, TWEEN® 20 (polysorbate 20) and TWEEN® 80 (polysorbate 80) was evaluated. Initially, 5 mg of TA was added to these solvents and the suspension was vortexed and sonicated for 15 min in a water bath at 37° C. When the API (i.e., TA) dissolved, 1 mg of drug was added to the vial. This process was continued until a preliminary estimation of the drug in all solvents was achieved.

For data set [4] the following is noted: cited from earlier work.

SMILES strings stand for the structures. Values after ≈ are worked out from the molar mass of the structure shown. Read-outs that look alike come from different tables or passages of the source.

`CC1(C)O[C@@H]2C[C@H]3[C@@H]4CCC5=CC(=O)C=C[C@]5(C)[C@@]4(F)[C@@H](O)C[C@]3(C)[C@]2(C(=O)CO)O1` [TA stock material] yielded a tap density in the data set “Tap density” of 0.4211 g/mL.

As for `CCC(=O)O[C@]1(C(=O)SCF)[C@H](C)C[C@H]2[C@@H]3C[C@H](F)C4=CC(=O)C=C[C@]4(C)[C@@]3(F)[C@@H](O)C[C@@]21C` [Form A], the dissolution rate result in data set [1] (in water at room temperature) is listed as “about 1 μg/g/day”. Also, in data set [1] (incubation in an aqueous medium), the “time to reach saturated solubility” value was determined as 6 weeks. In data set [2] (after purification (FIG. 10)), the agglomeration over time result is reported as “did not display any agglomeration over time”. Further, the “average particle size on stability” value in data set [2] (phase III pH 7.5, 25 degrees C. for 30 days) is “greater than 1 micron”. In addition, the tap density in “Tap density” and in the data set “Tap density” (listed as dried fluticasone propionate crystals prepared by the batch process) was 0.5786 g/mL each time.

On to `CC1(C)O[C@@H]2C[C@H]3[C@@H]4CCC5=CC(=O)C=C[C@]5(C)[C@@]4(F)[C@@H](O)C[C@]3(C)[C@]2(C(=O)CO)O1` [triamcinolone acetonide, (4aS,4bR,5S,6aS,6bS,9aR,10aS,10bS)-4b-fluoro-6b-glycoloyl-5-hydroxy-4a,6a,8,8-tetramethyl-4a,4b,5,6,6a,6b,9a,10,10a,10b,11,12-dodecahydro-2H-naphtho[2′,1′:4,5]indeno[1,2-d][1,3] dioxol-2-one], for which the solubility was 7000 µg/mL (≈ 16.1 mM) in data set [3] (in PEG 400, 37° C.) and 8000 µg/mL (≈ 18.4 mM) in data set [3] (in polypropylene glycol, 37° C.). Besides, the solubility at 15 min in data set [3] (in Propylene glycol, sonicated in water bath at 37° C.) is 14000 µg/mL (≈ 32.2 mM); in data set [3] (in TWEEN 20 (polysorbate 20), 37° C.), 5500 µg/mL (≈ 12.7 mM); in data set [3] (in TWEEN 80 (polysorbate 80), 37° C.) it was 4000 µg/mL (≈ 9.21 mM). In addition, the water solubility in data set [4] (at 28° C.) is 17.5 µg/mL (≈ 0.0403 mM). Moreover, the “solubility (descriptive)” value in data set [4] (in water) is recorded as “practically insoluble”.

`CCC(=O)O[C@]1(C(=O)SCF)[C@H](C)C[C@H]2[C@@H]3C[C@H](F)C4=CC(=O)C=C[C@]4(C)[C@@]3(F)[C@@H](O)C[C@@]21C` [FP stock material]: the “time to reach saturated solubility” value in data set [1] was ≤ 2 weeks. The compound further returned a tap density in “Tap density” (listed as fluticasone propionate stock) of 0.3278 g/mL.

In the case of `CCC(=O)O[C@]1(C(=O)SCF)[C@H](C)C[C@H]2[C@@H]3C[C@H](F)C4=CC(=O)C=C[C@]4(C)[C@@]3(F)[C@@H](O)C[C@@]21C` [FP homogenized], the saturated solubility in data set [1] was in the range of 40 to 45 µg/mL.

These data come from patent US9815865B2, “Preparations of hydrophobic therapeutic agents, methods of manufacture and use thereof” (Aciex Therapeutics, Inc., priority 2013, dated 2017).
